# In publication PMC10527014 (Antiviral research, 2023):
# Entries after “also recorded” stand apart in the source; their conditions may differ. Read-outs that look alike come from different tables or passages of the source.
# Tests used:
# [1] = tested on: Vero 76
# [2] = tested on: EV-D68; test: In vitro inhibition of EV-D68; type: cell-based; conditions: read-out: EC50 against EV-D68; discussion
# [3] = tested on: RD; test: Cytotoxicity; type: cell-based, human
# [4] = Mouse plasma protein binding; type: in vitro ADME
# [5] = target: CYP2C19 (Homo sapiens, UniProt P33261); test: CYP inhibition, CYP2C19; type: in vitro ADME; conditions: read-out: CYP inhibition
# CYP2C19, sequence (P33261 whole entry): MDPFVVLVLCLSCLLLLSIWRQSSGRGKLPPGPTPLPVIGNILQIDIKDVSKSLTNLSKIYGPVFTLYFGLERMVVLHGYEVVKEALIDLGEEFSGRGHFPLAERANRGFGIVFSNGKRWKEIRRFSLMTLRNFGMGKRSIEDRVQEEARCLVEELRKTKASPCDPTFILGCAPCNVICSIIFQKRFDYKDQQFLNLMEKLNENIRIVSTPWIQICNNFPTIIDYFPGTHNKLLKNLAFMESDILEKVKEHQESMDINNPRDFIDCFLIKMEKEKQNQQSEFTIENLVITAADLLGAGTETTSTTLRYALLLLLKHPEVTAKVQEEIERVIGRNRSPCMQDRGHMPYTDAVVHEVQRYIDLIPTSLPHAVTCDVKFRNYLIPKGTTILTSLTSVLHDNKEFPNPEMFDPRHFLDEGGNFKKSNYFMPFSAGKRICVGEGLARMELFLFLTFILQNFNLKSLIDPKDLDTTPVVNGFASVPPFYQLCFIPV
# [6] = tested on: Human Echovirus-11 Gregory; conditions: read-out: 50% Effective concentration EC50, RD, lowest concentration tested 0.032 μM
# [7] = tested on: EV-71 Tainan/4643/98; test: Virus yield reduction assay, EV-71 Tainan/4643/98; type: cell-based; conditions: read-out: 90% Effective concentration EC90; EV-71 Tainan/4643/98, Vero 76, virus yield reduction
# [8] = tested on: Vero; test: Cytotoxicity; type: cell-based; conditions: read-out: 50% Cytotoxic concentration CC50, line of Coxsackie B5
# [9] = target: CYP2D6 (Homo sapiens, UniProt P10635); test: CYP inhibition, CYP2D6; type: in vitro ADME; conditions: read-out: CYP inhibition
# CYP2D6, sequence (P10635 whole entry): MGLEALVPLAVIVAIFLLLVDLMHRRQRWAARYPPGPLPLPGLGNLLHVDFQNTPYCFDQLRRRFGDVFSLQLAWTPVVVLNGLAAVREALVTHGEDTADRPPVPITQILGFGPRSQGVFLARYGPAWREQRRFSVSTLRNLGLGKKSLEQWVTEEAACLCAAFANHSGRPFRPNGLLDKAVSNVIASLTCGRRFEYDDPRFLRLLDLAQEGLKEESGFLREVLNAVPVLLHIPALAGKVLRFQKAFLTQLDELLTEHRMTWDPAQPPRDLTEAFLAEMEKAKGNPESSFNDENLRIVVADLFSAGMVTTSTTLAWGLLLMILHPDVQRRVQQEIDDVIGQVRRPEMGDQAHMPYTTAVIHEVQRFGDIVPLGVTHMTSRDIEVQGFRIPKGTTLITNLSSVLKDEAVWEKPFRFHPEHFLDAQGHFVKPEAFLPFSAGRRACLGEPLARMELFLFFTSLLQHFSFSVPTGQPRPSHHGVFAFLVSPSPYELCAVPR
# [10] = tested on: Coxsackie B3 Nancy; conditions: read-out: 50% Effective concentration EC50, Vero 76, CPE
# [11] = tested on: CYP3A4; conditions: 1 μM, rifampicin as positive control, previously tested
# [12] = Mouse liver microsomes stability; type: in vitro ADME
# [13] = tested on: SARS-CoV-2 USA/WA1/2020; test: CPE reduction assay, SARS-CoV-2 USA/WA1/2020; type: cell-based; conditions: read-out: 50% Effective concentration EC50; SARS-CoV-2 USA/WA1/2020, Vero 76, CPE
# [14] = tested on: Human Echovirus-11 Gregory; test: Virus yield reduction assay, Human Echovirus-11 Gregory; type: cell-based; conditions: read-out: 90% Effective concentration EC90, RD, lowest concentration tested 0.032 μM
# [15] = target: CYP2C9 (Homo sapiens, UniProt P11712); test: CYP inhibition, CYP2C9; type: in vitro ADME; conditions: read-out: CYP inhibition
# CYP2C9, sequence (P11712 whole entry): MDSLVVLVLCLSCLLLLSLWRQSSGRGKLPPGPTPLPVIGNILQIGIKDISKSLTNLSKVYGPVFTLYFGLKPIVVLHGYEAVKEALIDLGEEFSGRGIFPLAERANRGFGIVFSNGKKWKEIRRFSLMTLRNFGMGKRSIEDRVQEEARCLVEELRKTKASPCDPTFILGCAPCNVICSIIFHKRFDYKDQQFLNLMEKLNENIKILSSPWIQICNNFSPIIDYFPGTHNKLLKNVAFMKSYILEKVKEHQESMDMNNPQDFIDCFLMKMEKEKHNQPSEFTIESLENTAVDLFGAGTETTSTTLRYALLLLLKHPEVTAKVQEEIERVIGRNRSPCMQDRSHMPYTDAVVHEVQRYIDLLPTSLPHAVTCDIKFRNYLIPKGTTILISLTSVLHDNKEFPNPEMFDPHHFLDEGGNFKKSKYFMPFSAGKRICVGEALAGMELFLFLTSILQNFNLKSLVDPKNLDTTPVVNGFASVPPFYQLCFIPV
# [16] = tested on: Coxsackievirus B3-Woodruff (CVB3); type: cell-based; conditions: read-out: Inhibitory concentration EC50 against CVB3-Woodruff; HeLa cells; infecting at low MOI 0.1 PFU / cell and adding drug after infection is established; ± SEM
# [17] = Mouse plasma stability; type: in vitro ADME; conditions: @ 5 hr, 37°C
# [18] = tested on: ma-EV-D68 US/MO/14-18949 (Mouse adapted); test: CPE reduction assay, ma-EV-D68 US/MO/14-18949; type: cell-based; conditions: read-out: 50% Effective concentration EC50, RD
# [19] = Human plasma protein binding; type: in vitro ADME
# [20] = Solubility; type: physicochemical
# [21] = tested on: Coxsackie B3 HA 201933; conditions: read-out: 50% Effective concentration EC50; Coxsackie B3 HA 201933, Vero 76, CPE
# [22] = tested on: EV-D68 US/KY/14-18953; conditions: read-out: 50% Effective concentration EC50; EV-D68 US/KY/14-18953, RD, CPE
# [23] = tested on: EV-71 Tainan/4643/98; conditions: read-out: 50% Effective concentration EC50; EV-71 Tainan/4643/98, Vero 76, CPE
# [24] = tested on: EVD68, strain IL/14-18952 (IL52); test: Preliminary EVD68 inhibition at single concentration, VP1 qPCR in RD cells; type: cell-based, EV-D68; conditions: 5 μM, preliminary work, Fig. S2
# [25] = tested on: Caco-2; test: Caco-2 permeability; type: in vitro ADME
# [26] = tested on: Influenza H1N1 California/07/2009; test: Virus yield reduction assay, Influenza H1N1 California/07/2009; type: cell-based; conditions: read-out: 90% Effective concentration EC90, Influenza H1N1 California/07/2009, MDCK
# [27] = tested on: Polio virus 1 Mahoney; type: cell-based; conditions: read-out: 90% Effective concentration EC90, Vero 76, virus yield reduction
# [28] = tested on: Coxsackievirus B5 (CVB5); test: CVB5 CPE rescue; type: cell-based
# [29] = Human liver microsomes stability; type: in vitro ADME
compound,measurement,setting,value
"Cc1cc(-c2noc(C(F)(F)F)n2)ccc1OCCCc1cc(C(=O)N(C)C)no1 [compound 11526092, 3-(3-methyl-4-(3-(3-N,N-dimethylcarbamoyl-isoxazol-5-yl)propoxy)phenyl)-5-trifluoromethyl-1,2,4-oxadiazole]",CC50,[1],10.8 µM
same,CC50,"[1]; read-out: 50% Cytotoxic concentration CC50, Vero 76, line of Coxsackie B3 HA 201933",8 µM
same,CC50,"[1]; read-out: 50% Cytotoxic concentration CC50, Vero 76, line of Coxsackie B3 Nancy",8 µM
same,CC50,"[1]; read-out: 50% Cytotoxic concentration CC50, Vero 76, line of EV-71",8.25 µM
same,CC50,"[1]; read-out: 50% Cytotoxic concentration CC50, Vero 76, line of SARS-CoV-2",7.54 µM
same,EC50,[2],0.059 µM
same,CC50,"[3]; read-out: 50% Cytotoxic concentration CC50, line of EV-D68 US/KY/14-18953",2.4 µM
same,CC50,"[3]; read-out: 50% Cytotoxic concentration CC50, line of EV-D68 US/MO/14-18949",28 µM
same,CC50,"[3]; read-out: 50% Cytotoxic concentration CC50, line of Human Echovirus-11",18 µM
same,CC50,"[3]; read-out: 50% Cytotoxic concentration CC50, line of Human Echovirus-30",11 µM
same,"Mouse plasma protein binding, stability",[4],88.1%
same,"Mouse plasma protein binding, bound",[4]; mouse,99.8%
same,IC50,[5],2.1 µM
same,EC50,[6],< 0.032 µM
same,EC90,[7],2.45 µM
same,CC50,[8],59.1 µM
same,IC50,[9],> 50 µM
same,EC50,[10],1.27 µM
same,"CYP3A induction, of control",[11],3 % of control
same,CYP3A induction,[11]; single donor in duplicate,1.2 x
same,Mouse liver microsomes stability (in words),[12],poor mouse microsomal stability; also recorded: unstable
same,Mouse liver microsomes CLint,[12]; mouse,70.6 μL/min/mg protein
same,Mouse liver microsomes t1/2,[12]; mouse,19.6 min
same,EC50,[13],> 7.54 µM
same,EC90,[14],< 0.032 µM
same,IC50,[15],5 µM
same,EC50,[16],0.016 µM
same,Mouse plasma stability,[17],"81.1% @ 5 hr, 37 °C"
same,EC50,[18],0.028 µM
same,"Human plasma protein binding, stability",[19],93.9%
same,"Human plasma protein binding, bound",[19]; human,99.7%
same,Solubility (in words),[20],low solubility
same,Solubility,[20]; Buffer pH 7.4,0.11 µM
same,Solubility,[20]; Fasted State Simulated Gastric Fluid (FaSSGF),0.55 µM
same,Solubility,[20]; Fasted State Simulated Intestinal Fluid (FaSSIF),12.05 µM
same,EC50,[21],1.01 µM
same,EC50,[22],0.042 µM
same,EC50,[23],4.24 µM
same,Antiviral effect in RD cells infected with EV-D68,[24],greatest antiviral effect
same,Caco-2 Efflux ratio,[25],3.5
same,Caco-2 Papp A-B,[25],880 ×10⁻⁶ cm/s
same,Caco-2 Papp B-A,[25],3090 ×10⁻⁶ cm/s
same,"P-gp substrate (in words, from Caco-2 data)",[25],likely a P-gp substrate
same,EC90,[26],9.4 µM
same,EC90,[27],0.52 µM
same,EC50,[28]; read-out: 50% Effective concentration EC50,0.001 µM
same,EC50,"[28]; read-out: EC50 against CVB5, Vero cells, text values (Fig. S3)",0.0011 µM
same,Human liver microsomes stability (in words),[29],metabolically stable
same,Human liver microsomes T1/2,[29]; human,55.3 min
same,Human liver microsomes clearance,[29]; human,25.1 μL /min/mg protein
